Patent US7303881B2, “Antigen delivery compositions and methods of use” (priority 2004, dated 2007)

Experiments:
DC 2.4 cells = assay: Expression of CD80 on DC 2.4 cells, cationic lipid head group and chain length; format: cell-based
Text: Both hydrophilic head and the lipophilic tail of the lipids have significant effect on this ability. […] The effect of the hydrocarbon tail region of the lipids on the DC cell stimulation also was systematically investigated (FIG. 8).

[1] = tested on: EL4 cells pulsed with E7 peptide; assay: Chromium release CTL assay after LPD/E7 vaccination; format: in vivo, C57BL/6 mice; settings: 20 μg E7 peptide, IV and SC, days 0 and 5
Protocol: For comparison, mice were injected with 20 μg E7 peptide in PBS or encapsulated in SL liposomes. Five days after the final vaccination, splenocytes were collected, and used as effector cells in a chromium release assay. Consistent with previous reports, antigen containing SL liposomes induced significant levels of CTL activity (61% specific lysis) following SC injection only.
Cytolytic lymphocyte activity was measured using standard ^51Cr-release assays. Splenocytes were collected and cultured in RPMI supplemented with 10% FBS, 50 U/ml penicillin/streptomycin, 2 mM L-glutamine, 1 mM sodium pyruvate, 2 mM nonessential amino acids, 40 U/ml IL2, and 200 ng/ml MHC class I restricted E7 peptide for 4 days. Effector cells were plated into 96-well plates at various effector-to-target (E:T) cell ratios. Targets used were either EL4 cells pulsed with E7 peptide or non-pulsed EL4 cells. Targets were labeled with 200 μCi ^51Cr (NEN Life Sciences, Boston Mass.) for 18 h at 37° C. Before mixing with effectors, the targets were washed two times with medium, and resuspended at 2×10^5 cells/ml. […] Specific lysis was calculated using the following equation: % specific lysis=(experimental release−spontaneous release)/(maximum release−spontaneous release)×100. […]

tumor = assay: In vivo tumor therapy with LPD/E7 and formulations of LPD components; parameters: species or system mice; settings: 20 days after treatment; tumor injected 6 days before onset of treatment
Text: FIG. 9. Tumor growth kinetics on mice treated with LPD/E7 and other different formulations.
It is speculated that by condensing DNA, protamine helped to bring DNA inside the liposomes. E7 peptide was thought to bind to DNA via electrostatic interaction (Dileo et al., 2003). […] On the other hand, E7might only be loosely bound in the LD/E7 particles.

TC-1 cells = assay: Metastatic tumor model (i.p. TC-1 cells) after vaccination, survival and TC-1 rechallenge; format: in vivo, mice; settings: 10 μg E7 peptide in PBS days 0 and 5; 1×10^6 TC-1 cells day 10

Compound	Stimulation of CD 80 expression (DC 2.4 cells)	other results
CCCCCCCCCCCC(=O)OC[C@H](COP(=O)(OCC)OCC[N+](C)(C)C)OC(=O)CCCCCCCCCCC (stereo partly drawn) [DLEPC-12:0, 1,2-dilauroyl-sn-glycero-3-ethylphosphocholine]	more potent	
CCCCCCCCCCCCCC(=O)OCC(COP(=O)(OCC)OCC[N+](C)(C)C)OC(=O)CCCCCCCCCCCCC (stereo not drawn) [DMEPC-14:0, 1,2-dimyristoyl-sn-glycero-3-ethylphosphocholine]	more potent	
CCCCCCCC/C=C\CCCCCCCC(=O)OC[C@@H](COP(=O)(OCC)OCC[N+](C)(C)C)OC(=O)CCCCCCC/C=C\CCCCCCCC (stereo partly drawn) [DOEPC-18:1, 1,2-dioleoyl-sn-glycero-3-ethylphosphocholine]	more potent	
CCCCCCCCCCCCCCCC(=O)OCC(C[N+](C)(C)C)OC(=O)CCCCCCCCCCCCCCC (stereo not drawn) [DPTAP-16:0, 1,2-palmitoyl-3-trimethylammonium propane]	much lower expression of CD80	
CCCCCCCCCCCCCCCCCC(=O)OCC(C[N+](C)(C)C)OC(=O)CCCCCCCCCCCCCCCCC (stereo not drawn) [DSTAP-18:0, 1,2-distearoyl-3-trimethylammonium propane]	much lower expression of CD80	
CCCCCCCCCCCCOS(=O)(=O)[O-].[Na+] [SDS, sodium dodecyl sulfate]	could not activate	
E7 peptide: MHC class I restricted peptide from the HPV 16 E7 protein (aa 49 to 57, RAHYNIVTF), given in PBS		CTL activity [1]: no CTL induction; Tumor growth after treatment (tumor): kept growing rapidly; mice surviving beyond 20 days after TC-1 cell injection (TC-1 cells): 20%
